Experimental data reported in patent US12590066B2, “Fused-heterocyclyl-carbonohydrazonoyl dicyanide compounds and use thereof” (KOREA INSTITUTE OF SCIENCE AND TECHNOLOGY, priority 2020, dated 2026).

Experiments:
tau protein = biological target: T1, tau protein (Homo sapiens, UniProt P10636); experiment: Tau-BiFC cell model, inhibition of Forskolin-induced tau protein aggregation; assay type: cell-based; conditions: Forskolin 30 μM, 48 hours
T1 construct: BiFC fluorescent-protein fragments (type and halves not specified); expressed in transfected cells
Protocol: In order to select novel tau protein aggregation-inhibiting substances, tau-BiFC cell model, in which formation of tau oligomers in living cells is easily observed, was used. Tau-BiFC cells were aliquoted into a 384-well plate. On the next day, the cells were treated with each of the compounds prepared according to Examples 1 to 57 at concentrations of 1 μM, 3 μM, and 10 μM, together with Forskolin (at a treatment concentration of 30 μM), which is a compound inducing tau protein aggregation by activating tau phosphorylase PKA. After 48 hours, nuclei in the cells were stained using Hoechst (at a treatment concentration of 2 μg/mL), and BiFC fluorescence intensity was automatically measured using Operetta (PerkinElmer) to count stained nuclei in each well out of the entire well plate. The group treated only with Forskolin, which induces tau protein aggregation, was set to a reference point of a 100% tau protein-aggregated state, and the effects of the compounds were confirmed using the equation “BiFC fluorescence intensity due to compound synthesized according to embodiment of present invention/(fluorescence intensity of control group treated only with Forskolin inducing tau protein aggregation−fluorescence intensity of untreated control group)×100”. Furthermore, the degree of cytotoxicity induced by the newly synthesized compound was also measured based on the 100% cell viability of the group treated only with Forskolin as a reference, and the cytotoxicity value of each compound was calculated using the equation “(number of stained nuclei in group treated with compound/number of stained nuclei in group treated with Forskolin)×100”. Based on the treatment results, substances inhibiting intracellular tau protein aggregation were selected from a series of candidate groups showing a tau protein aggregation inhibition rate of 70% or more and cell viability of 100% at a compound treatment concentration of 10 μM or more.
In order to evaluate dose-dependent tau protein aggregation inhibition effects of the compounds selected according to Experimental Example 1 on tau protein aggregation, tau-BiFC cells were treated with the selected compounds at concentrations of 0.03 μM, […], 0.3 μM, 1 μM, 3 μM, 10 μM, and 30 μM, respectively, together with Forskolin (at a treatment concentration of 30 μM), which is a tau protein aggregation-inducing substance. After 48 hours, tau protein aggregation reaction and degrees of cytotoxicity were analyzed by observing images of the cells. IC50 and toxicity of the compounds were analyzed by way of nonlinear regression analysis of prism software (Graph Pad).

CYP1A2 = biological target: T2, CYP1A2 (Homo sapiens, UniProt P05177); experiment: Inhibitory effect on CYP coenzyme activity, human liver microsomes; assay type: in vitro ADME; conditions: 10 μM compound, human liver microsomes 0.25 mg/mL, substrate phenacetin, 15 minutes
T2 construct: human liver microsomes (0.25 mg/mL); from tissue; host or cells: human liver microsomes
T2 sequence (P05177 1-516): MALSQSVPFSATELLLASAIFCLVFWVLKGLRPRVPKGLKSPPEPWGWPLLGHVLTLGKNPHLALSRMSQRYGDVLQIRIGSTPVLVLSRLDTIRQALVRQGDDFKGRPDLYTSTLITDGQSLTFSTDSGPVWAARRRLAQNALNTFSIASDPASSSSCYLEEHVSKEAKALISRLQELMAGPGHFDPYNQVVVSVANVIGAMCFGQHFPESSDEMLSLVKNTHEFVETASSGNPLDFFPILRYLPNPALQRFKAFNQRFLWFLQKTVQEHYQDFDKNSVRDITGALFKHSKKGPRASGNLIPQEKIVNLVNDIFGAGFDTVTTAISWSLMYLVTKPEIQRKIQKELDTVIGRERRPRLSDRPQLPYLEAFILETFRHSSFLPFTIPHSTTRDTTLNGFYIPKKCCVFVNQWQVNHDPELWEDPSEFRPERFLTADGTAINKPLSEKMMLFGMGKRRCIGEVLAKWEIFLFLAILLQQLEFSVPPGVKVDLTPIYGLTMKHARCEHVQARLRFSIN
Protocol: (§1) The inhibitory effects of the compounds prepared according to Examples 1 to 57 on CYP coenzyme activity were identified. Specifically, human liver microsomes (0.25 mg/mL), a 0.1 M phosphate buffer solution (pH 7.4), a substrate drug cocktail of five types of drug metabolism enzymes (50 μM phenacetin, 10 μM diclofenac, 100 μM S-mephenytoin, 5 μM dextromethorphan, and 2.5 μM midazolam), and the compound at a concentration of 0 μM or 10 μM were mixed and pre-cultured at 37° C. for 5 minutes, and then further cultured at 37° C. for 15 minutes together with an NADPH generation system solution added thereto. Thereafter, the reaction was terminated by adding an acetonitrile solution containing an internal standard material (terfenadine) and centrifuged for 5 minutes (14,000 rpm, 4° C.), and then a supernatant was injected into an LC-MS/MS system for simultaneous analysis of metabolites of the substrate drugs to thereby evaluate the inhibitory effects on drug metabolism.
(§2) Metabolites of each CYP coenzyme indicator drug generated through the reaction were analyzed using the Shimadzu Nexera XR system and TSQ Vantage (Thermo). In an HPLC column, Kinetex C18 (2.1 mm×100 mm, 2.6 μm, particle size; Phenomenex, USA) was used, and mobile phases were (A) distilled water containing 0.1% formic acid and (B) acetonitrile containing 0.1% formic acid, and a gradient program shown in Table 3 was applied thereto.
(§3) The generated metabolites were quantified using a multiple reaction monitoring (MRM) quantification mode, and Xcalibur (version 1.6.1) was used for data analysis. In order to express inhibitory effects of the novel compound prepared according to the examples of the present invention on CYP coenzyme activity, CYP coenzyme activities (%) with respect to the control group not treated with the compound are shown in Table 4 below.

CYP2D6 = biological target: T3, CYP2D6 (Homo sapiens, UniProt P10635); experiment: as above; assay type: in vitro ADME; conditions: 10 μM compound, human liver microsomes 0.25 mg/mL, substrate dextromethorphan, 15 minutes
T3 construct: human liver microsomes (0.25 mg/mL); from tissue; host or cells: human liver microsomes
Protocol: as §1, §2, §3

CYP3A4 = biological target: T4, CYP3A4 (Homo sapiens, UniProt P08684); experiment: as above; assay type: in vitro ADME; conditions: 10 μM compound, human liver microsomes 0.25 mg/mL, substrate midazolam, 15 minutes
T4 construct: human liver microsomes (0.25 mg/mL); from tissue; host or cells: human liver microsomes
Protocol: as §1, §2, §3

CYP2C19 = biological target: T5, CYP2C19 (Homo sapiens, UniProt P33261); experiment: as above; assay type: in vitro ADME; conditions: 10 μM compound, human liver microsomes 0.25 mg/mL, substrate S-mephenytoin, 15 minutes
T5 construct: human liver microsomes (0.25 mg/mL); from tissue; host or cells: human liver microsomes
Protocol: as §1, §2, §3

CYP2C9 = biological target: T6, CYP2C9 (Homo sapiens, UniProt P11712); experiment: as above; assay type: in vitro ADME; conditions: 10 μM compound, human liver microsomes 0.25 mg/mL, substrate diclofenac, 15 minutes
T6 construct: human liver microsomes (0.25 mg/mL); from tissue; host or cells: human liver microsomes
Protocol: as §1, §2, §3

Tau-BiFC cells = experiment: Cell viability (stained nuclei count) in Tau-BiFC cells; assay type: cell-based; conditions: 10 μM compound, 48 hours; Forskolin-only group = 100% cell viability
Protocol: In order to select novel tau protein aggregation-inhibiting substances, tau-BiFC cell model, in which formation of tau oligomers in living cells is easily observed, was used. Tau-BiFC cells were aliquoted into a 384-well plate. On the next day, the cells were treated with each of the compounds prepared according to Examples 1 to 57 at concentrations of 1 μM, 3 μM, and 10 μM, together with Forskolin (at a treatment concentration of 30 μM), which is a compound inducing tau protein aggregation by activating tau phosphorylase PKA. After 48 hours, nuclei in the cells were stained using Hoechst (at a treatment concentration of 2 μg/mL), and BiFC fluorescence intensity was automatically measured using Operetta (PerkinElmer) to count stained nuclei in each well out of the entire well plate. The group treated only with Forskolin, which induces tau protein aggregation, was set to a reference point of a 100% tau protein-aggregated state, and the effects of the compounds were confirmed using the equation “BiFC fluorescence intensity due to compound synthesized according to embodiment of present invention/(fluorescence intensity of control group treated only with Forskolin inducing tau protein aggregation−fluorescence intensity of untreated control group)×100”. Furthermore, the degree of cytotoxicity induced by the newly synthesized compound was also measured based on the 100% cell viability of the group treated only with Forskolin as a reference, and the cytotoxicity value of each compound was calculated using the equation “(number of stained nuclei in group treated with compound/number of stained nuclei in group treated with Forskolin)×100”. Based on the treatment results, substances inhibiting intracellular tau protein aggregation were selected from a series of candidate groups showing a tau protein aggregation inhibition rate of 70% or more and cell viability of 100% at a compound treatment concentration of 10 μM or more. […]

T1 sequence (P10636 1-441 isoform P10636-8): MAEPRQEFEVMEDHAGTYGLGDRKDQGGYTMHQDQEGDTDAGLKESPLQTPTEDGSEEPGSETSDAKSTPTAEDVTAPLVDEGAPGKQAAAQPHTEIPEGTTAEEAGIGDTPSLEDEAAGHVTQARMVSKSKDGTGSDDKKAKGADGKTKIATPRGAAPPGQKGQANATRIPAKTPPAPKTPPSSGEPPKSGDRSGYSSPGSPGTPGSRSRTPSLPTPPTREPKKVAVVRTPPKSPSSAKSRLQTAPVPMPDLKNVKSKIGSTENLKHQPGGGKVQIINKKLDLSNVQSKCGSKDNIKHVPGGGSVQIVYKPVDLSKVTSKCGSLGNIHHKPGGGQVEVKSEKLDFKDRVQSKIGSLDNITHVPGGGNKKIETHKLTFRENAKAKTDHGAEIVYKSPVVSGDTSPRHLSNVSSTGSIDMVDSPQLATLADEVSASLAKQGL
T5 sequence (P33261 whole entry): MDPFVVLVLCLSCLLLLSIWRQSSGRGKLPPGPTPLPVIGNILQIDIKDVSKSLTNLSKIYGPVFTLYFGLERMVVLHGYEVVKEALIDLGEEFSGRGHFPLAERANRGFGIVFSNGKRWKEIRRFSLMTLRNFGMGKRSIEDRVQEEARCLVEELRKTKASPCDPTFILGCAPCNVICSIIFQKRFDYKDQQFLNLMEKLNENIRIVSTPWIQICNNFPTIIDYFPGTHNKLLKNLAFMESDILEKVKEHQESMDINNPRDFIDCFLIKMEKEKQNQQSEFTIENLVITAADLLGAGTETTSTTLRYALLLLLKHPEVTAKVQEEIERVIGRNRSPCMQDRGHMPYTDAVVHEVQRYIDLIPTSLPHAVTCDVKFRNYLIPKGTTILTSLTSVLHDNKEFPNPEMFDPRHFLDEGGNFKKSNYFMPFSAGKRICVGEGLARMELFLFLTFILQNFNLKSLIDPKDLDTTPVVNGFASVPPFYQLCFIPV
T6 sequence (P11712 whole entry): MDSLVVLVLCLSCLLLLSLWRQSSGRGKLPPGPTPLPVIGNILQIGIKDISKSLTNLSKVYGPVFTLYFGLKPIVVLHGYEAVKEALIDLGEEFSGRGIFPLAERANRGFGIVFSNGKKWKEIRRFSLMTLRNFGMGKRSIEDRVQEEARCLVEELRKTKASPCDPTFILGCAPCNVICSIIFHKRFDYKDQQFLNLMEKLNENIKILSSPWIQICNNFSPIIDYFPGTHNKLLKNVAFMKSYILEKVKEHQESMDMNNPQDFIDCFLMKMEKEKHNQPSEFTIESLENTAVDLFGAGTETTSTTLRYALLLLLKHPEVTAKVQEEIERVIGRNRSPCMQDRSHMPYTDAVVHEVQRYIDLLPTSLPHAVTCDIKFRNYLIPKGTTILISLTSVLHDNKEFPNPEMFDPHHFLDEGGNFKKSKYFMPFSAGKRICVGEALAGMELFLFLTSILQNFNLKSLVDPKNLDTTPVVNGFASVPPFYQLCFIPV
T4 sequence (P08684 whole entry): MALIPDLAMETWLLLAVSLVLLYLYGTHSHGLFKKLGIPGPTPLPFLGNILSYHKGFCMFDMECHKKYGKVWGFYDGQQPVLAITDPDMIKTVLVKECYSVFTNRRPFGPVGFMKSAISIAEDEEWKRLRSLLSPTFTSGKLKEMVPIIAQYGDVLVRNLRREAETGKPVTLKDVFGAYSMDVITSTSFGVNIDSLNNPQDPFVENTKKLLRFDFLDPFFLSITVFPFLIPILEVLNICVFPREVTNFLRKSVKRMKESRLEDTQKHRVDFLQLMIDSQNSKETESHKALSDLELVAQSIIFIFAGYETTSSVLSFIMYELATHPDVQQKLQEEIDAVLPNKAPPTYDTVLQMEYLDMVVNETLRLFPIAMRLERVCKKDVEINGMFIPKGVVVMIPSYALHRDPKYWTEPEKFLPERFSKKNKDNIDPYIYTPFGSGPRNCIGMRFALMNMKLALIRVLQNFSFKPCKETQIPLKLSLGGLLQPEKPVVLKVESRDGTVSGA
T3 sequence (P10635 whole entry): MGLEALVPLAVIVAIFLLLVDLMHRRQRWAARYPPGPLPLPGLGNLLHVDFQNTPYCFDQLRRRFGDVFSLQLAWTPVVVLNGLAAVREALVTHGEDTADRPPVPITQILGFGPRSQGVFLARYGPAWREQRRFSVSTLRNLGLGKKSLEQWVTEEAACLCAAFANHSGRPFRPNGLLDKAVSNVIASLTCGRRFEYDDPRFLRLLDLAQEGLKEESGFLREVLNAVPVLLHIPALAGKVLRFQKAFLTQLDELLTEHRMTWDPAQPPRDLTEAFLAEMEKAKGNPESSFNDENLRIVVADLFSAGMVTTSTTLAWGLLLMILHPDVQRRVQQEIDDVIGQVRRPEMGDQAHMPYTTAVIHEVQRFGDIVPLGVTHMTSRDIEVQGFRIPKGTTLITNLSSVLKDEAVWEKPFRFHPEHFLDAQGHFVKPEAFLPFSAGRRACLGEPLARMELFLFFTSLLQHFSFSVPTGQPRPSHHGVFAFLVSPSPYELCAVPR

## Cc1cc(=O)n(C)c2ccc(NN=C(C#N)C#N)cc12 [Compound 27, (1,4-dimethyl-2-oxo-1,2-dihydroquinolin-6-yl)carbonohydrazonoyl dicyanide]
Tau protein; 10 μM compound, Forskolin-only group = 100% tau protein-aggregated state
  Tau BiFC in cells Response (% @10 μM): −41%
Tau protein; tau-BiFC cells
  IC50: 10 nM
CYP1A2
  CYP1A2 coenzyme activity (%) with respect to control group not treated: 58.7%
CYP2D6
  CYP2D6 coenzyme activity (%) with respect to control group not treated: 86.7%
CYP3A4
  CYP3A4 coenzyme activity (%) with respect to control group not treated: 73.6%
CYP2C19
  CYP2C19 coenzyme activity (%) with respect to control group not treated: 96.3%
CYP2C9
  CYP2C9 coenzyme activity (%) with respect to control group not treated: 33.6%
Tau-BiFC cells
  Cell viability (% @10 μM): 115%
